{"source": "ChEMBL document CHEMBL4354807", "about": "“Natural Product Albiziabioside A Conjugated with Pyruvate Dehydrogenase Kinase Inhibitor Dichloroacetate To Induce Apoptosis-Ferroptosis-M2-TAMs Polarization for Combined Cancer Therapy” (J Med Chem, 2019)", "key": {"MCF7 [1]": {"system": "MCF7", "assay": "Effect on lipid peroxidation in human MCF7 cells assessed as increase in […] at 2 uM after 15 mins by BODIPY-C11 dye based fluorescence imaging analysis relative to control", "type": "functional"}, "[2]": {"target": "[Pyruvate dehydrogenase (acetyl-transferring)] kinase isozyme 1, mitochondrial (Homo sapiens) (UniProt Q15118)", "assay": "Inhibition of PDK1 (unknown origin) in PBS buffer using PDK tide as substrate at pH 7.4 measured after 90 mins in presence of ATP by ADP-Glo luminescent kinase assay"}, "MCF7 [3]": {"system": "MCF7", "assay": "Downregulation of GPX4 expression in human MCF7 cells at 2 uM after 48 hrs by Western blot analysis", "type": "functional, cell-based"}, "[4]": {"assay": "Selectivity index, ratio IC50 for cytotoxicity against human LO2 cells assessed as reduction in cell viability after 72 hrs by MTT assay to IC50 for anticancer activity against human HCT116 cells assessed as reduction in cell viability after 72 hrs by MTT assay", "type": "toxicity, cell-based", "conditions": "LO2 cells versus HCT116 cells, read-out: Ratio IC50"}, "MCF7 [5]": {"system": "MCF7", "assay": "Induction of apoptosis in human MCF7 cells assessed as upregulation of cytochrome C expression at 2 uM after 48 hrs by Western blot analysis relative to control", "type": "functional"}, "[6]": {"assay": "Toxicity in BALB/c nude mouse xenografted with human MCF7 cells assessed as effect on spleen at 2 mg/kg, iv administered every 2 days for 2 weeks measured after 14 days by hematoxylin and eosin staining based histopathological analysis", "type": "organism-based", "conditions": "in vivo, 336 h"}, "MCF7 [7]": {"system": "MCF7", "assay": "Induction of apoptosis in human MCF7 cells assessed as necrotic cells at 2 uM after 24 hrs by Annexin V-FITC/propidium iodide staining-based flow cytometric analysis (reference value: 0.10 %)", "type": "functional"}, "L02": {"system": "L02", "assay": "Cytotoxicity against human LO2 cells assessed as reduction in cell viability after 72 hrs by MTT assay", "type": "cell-based", "conditions": "L02, 72 h"}, "A-375 [8]": {"system": "A-375", "assay": "Synergistic anticancer activity against human A375 cells expressing assessed as combination index after 72 hrs by MTT assay", "type": "functional"}, "[9]": {"assay": "Stability of compound in PBS at pH 7.4 and 37 degree C measured after 2 hrs by HPLC analysis", "type": "physicochemical", "conditions": "buffer, pH 7.4, 2 h"}, "4T1 [10]": {"system": "4T1", "assay": "Reversal of immunosuppression against mouse 4T1 cells implanted in BALB/c mouse assessed as decrease in weight of primary tumor at 2 mg/kg administered intratumorally every 2 days for 2 weeks measured after 14 days", "type": "functional, organism-based"}, "4T1 [11]": {"system": "4T1", "assay": "Reversal of immunosuppression against mouse 4T1 cells implanted in BALB/c mouse assessed as decrease in weight of distal tumor at 2 mg/kg administered intratumorally every 2 days for 2 weeks measured after 14 days", "type": "functional, organism-based"}, "[12]": {"assay": "Toxicity in BALB/c nude mouse xenografted with human MCF7 cells assessed as effect on lung at 2 mg/kg, iv administered every 2 days for 2 weeks measured after 14 days by hematoxylin and eosin staining based histopathological analysis", "type": "organism-based", "conditions": "in vivo, 336 h"}, "Mus musculus [13]": {"system": "Mus musculus", "assay": "Modulation of tumor immunosuppressive activity in BALB/c mouse xenografted with mouse 4T1 cells assessed as increase in IFNgamma expression in tumor administered intratumorally every other day for 14 days measured at 2 days post-last dose by ELISA", "type": "functional, organism-based"}, "4T1 [14]": {"system": "4T1", "assay": "Induction of M2-TAM polarization in mouse 4T1 cells assessed as decrease in MRC1 mRNA expression at 2 uM after 48 hrs by Western blot analysis relative to control", "type": "functional"}, "4T1 [15]": {"system": "4T1", "assay": "Reversal of immunosuppression against mouse 4T1 cells implanted in BALB/c mouse assessed as growth inhibition of primary tumor at 2 mg/kg administered intratumorally every 2 days for 2 weeks measured after 14 days", "type": "functional, organism-based"}, "MCF7 [16]": {"system": "MCF7", "assay": "Induction of apoptosis in human MCF7 cells assessed as early apoptotic cells at 2 uM after 24 hrs by Annexin V-FITC/propidium iodide staining-based flow cytometric analysis (reference value: 3.53 %)", "type": "functional"}, "[17]": {"assay": "Drug metabolism assessed as carboxylesterase (unknown origin)-mediated compound cleavage at aniline-amide bond after 2 hrs by HPLC analysis", "type": "ADME", "conditions": "human"}, "MCF7 [18]": {"system": "MCF7", "assay": "Induction of ferroptosis in human MCF7 cells assessed as cell death at 2 uM pretreated with ferroptosis inhibitor ferrostatin-1 followed by compound treatment by MTT assay", "type": "functional, cell-based"}, "[19]": {"assay": "Selectivity index, ratio IC50 for cytotoxicity against human LO2 cells assessed as reduction in cell viability after 72 hrs by MTT assay to IC50 for anticancer activity against human A375 cells assessed as reduction in cell viability after 72 hrs by MTT assay", "type": "toxicity, cell-based", "conditions": "LO2 cells versus A375 cells, read-out: Ratio IC50"}, "[20]": {"assay": "Toxicity in BALB/c nude mouse xenografted with human MCF7 cells assessed as effect on ALP level in blood at 2 mg/kg, iv administered every 2 days for 2 weeks measured after 14 days", "type": "organism-based", "conditions": "in vivo, 336 h"}, "[21]": {"assay": "Toxicity in BALB/c nude mouse xenografted with human MCF7 cells assessed as mouse death at 2 mg/kg, iv administered every 2 days for 2 weeks measured after 14 days", "type": "organism-based", "conditions": "in vivo, 336 h"}, "MCF7 [22]": {"system": "MCF7", "assay": "Induction of apoptosis in human MCF7 cells assessed as downregulation of Bcl2 expression at 2 uM after 48 hrs by Western blot analysis relative to control", "type": "functional"}, "A-375 [23]": {"system": "A-375", "assay": "Anticancer activity against human A375 cells expressing PDK assessed as reduction in cell viability after 72 hrs by MTT assay", "type": "functional, cell-based", "conditions": "A-375, 72 h"}, "MCF7 [24]": {"system": "MCF7", "assay": "Induction of ferroptosis in human MCF7 cells assessed as reduction in cellular GSH level at 2 uM after 24 hrs by microplate reader assay", "type": "functional, cell-based"}, "Mus musculus [25]": {"system": "Mus musculus", "assay": "Modulation of tumor immunosuppressive activity in BALB/c mouse xenografted with mouse 4T1 cells assessed as increase in IL12 expression in serum administered intratumorally every other day for 14 days measured at 2 days post-last dose by ELISA", "type": "functional, organism-based"}, "[26]": {"assay": "Toxicity in BALB/c nude mouse xenografted with human MCF7 cells assessed as effect on body weight at 2 mg/kg, iv administered every 2 days for 2 weeks measured after 14 days", "type": "organism-based", "conditions": "in vivo, 336 h"}, "MCF7 [27]": {"system": "MCF7", "assay": "Induction of apoptosis in human MCF7 cells assessed as increase in caspase 9 expression at 2 uM after 48 hrs by Western blot analysis relative to control", "type": "functional"}, "4T1 [28]": {"system": "4T1", "assay": "Induction of M2-TAM polarization in mouse 4T1 cells assessed as decrease in MRC1 protein level at 2 uM after 48 hrs by Western blot analysis relative to control", "type": "functional"}, "[29]": {"assay": "Toxicity in BALB/c nude mouse xenografted with human MCF7 cells assessed as effect on AST level in blood at 2 mg/kg, iv administered every 2 days for 2 weeks measured after 14 days", "type": "organism-based", "conditions": "in vivo, 336 h"}, "MCF7 [30]": {"system": "MCF7", "assay": "Synergistic anticancer activity against human MCF7 cells overexpressing assessed as combination index after 72 hrs by MTT assay", "type": "functional"}, "MCF7 [31]": {"system": "MCF7", "assay": "Induction of ferroptosis in human MCF7 cells assessed as cell death at 2 uM pretreated with exogenous iron Fe2+ followed by compound treatment by MTT assay", "type": "functional, cell-based"}, "4T1 [32]": {"system": "4T1", "assay": "Synergistic anticancer activity against mouse 4T1 cells expressing assessed as combination index after 72 hrs by MTT assay", "type": "functional"}, "[33]": {"target": "[Pyruvate dehydrogenase (acetyl-transferring)] kinase isozyme 1, mitochondrial (Homo sapiens) (UniProt Q15118)", "assay": "Inhibition of PDK1 (unknown origin) in plasma using PDK tide as substrate measured after 90 mins in presence of ATP by ADP-Glo luminescent kinase assay", "type": "cell-free"}, "MCF7 [34]": {"system": "MCF7", "assay": "Induction of metabolic reversal from aerobic glycolysis to oxidative phosphorylation in human MCF7 cells assessed as effect on extracellular acidification rate at 2 uM pretreated for 4 hrs followed by glucose addition after 25 mins followed by subsequent addition of oligomycin A after 50 mins followed by 2-DG addition after 80 mins by seahorse XF24 extracellular flux analyzer assay", "type": "functional, cell-based"}}, "note": "Calls of active or inactive are those of the source. The rule behind the calls is not given here.", "data": [{"smiles": "CC1(C)CC[C@]2(C(=O)O)CC[C@]3(C)C(=CC[C@@H]4[C@@]5(C)CC[C@H](O[C@@H]6O[C@H](CO[C@@H]7OC[C@H](O)[C@H](O)[C@H]7O)[C@@H](O)[C@H](O)[C@H]6NC(=O)C(Cl)Cl)C(C)(C)[C@@H]5CC[C@]43C)[C@@H]2C1", "values": [{"measurement": "fold change (FC)", "setting": "MCF7 [1]", "result": 2.5}, {"measurement": "inhibition", "setting": "[2]", "result": "inactive"}, {"measurement": "Activity", "setting": "MCF7 [3]", "result": "Active"}, {"measurement": "selectivity ratio at 72 h", "setting": "[4]", "result": 12.7}, {"measurement": "fold change (FC)", "setting": "MCF7 [5]", "result": 4.4}, {"measurement": "Activity", "setting": "[6]", "result": "Non-Toxic"}, {"measurement": "Activity", "setting": "MCF7 [7]", "result": 4.86, "unit": "%"}, {"measurement": "IC50", "setting": "L02", "result": 53.1, "unit": "µM"}, {"measurement": "CI", "setting": "A-375 [8]", "result": 0.7}, {"measurement": "Stability", "setting": "[9]", "result": "Stable"}, {"measurement": "Activity", "setting": "4T1 [10]", "result": "Active"}, {"measurement": "Activity", "setting": "4T1 [11]", "result": "Active"}, {"measurement": "Activity", "setting": "[12]", "result": "Non-Toxic"}, {"measurement": "Activity", "setting": "Mus musculus [13]", "result": "Active"}, {"measurement": "fold change (FC)", "setting": "4T1 [14]", "result": 3.4}, {"measurement": "growth inhibition (GI)", "setting": "4T1 [15]", "result": "Active"}, {"measurement": "Activity", "setting": "MCF7 [16]", "result": 25.16, "unit": "%"}, {"measurement": "Drug metabolism", "setting": "[17]", "result": "Metabolite_Detected"}, {"measurement": "Activity", "setting": "MCF7 [18]", "result": "inactive"}, {"measurement": "selectivity ratio at 72 h", "setting": "[19]", "result": 14.1}, {"measurement": "Activity", "setting": "[20]", "result": "Non-Toxic"}, {"measurement": "Activity", "setting": "[21]", "result": "Non-Toxic"}, {"measurement": "fold change (FC)", "setting": "MCF7 [22]", "result": 0.5}, {"measurement": "IC50", "setting": "A-375 [23]", "result": 3.78, "unit": "µM"}, {"measurement": "Activity", "setting": "MCF7 [24]", "result": "Active"}, {"measurement": "Activity", "setting": "Mus musculus [25]", "result": "Active"}, {"measurement": "Activity", "setting": "[26]", "result": "Non-Toxic"}, {"measurement": "fold change (FC)", "setting": "MCF7 [27]", "result": 6}, {"measurement": "fold change (FC)", "setting": "4T1 [28]", "result": 3.4}, {"measurement": "Activity", "setting": "[29]", "result": "Non-Toxic"}, {"measurement": "CI", "setting": "MCF7 [30]", "result": 0.03}, {"measurement": "Activity", "setting": "MCF7 [31]", "result": "Active"}, {"measurement": "CI", "setting": "4T1 [32]", "result": 0.09}, {"measurement": "inhibition", "setting": "[33]", "result": "inactive"}, {"measurement": "Activity", "setting": "MCF7 [34]", "result": "Active"}]}]}
